Assay [1] in a line: Inhibitory activity against sigma receptor isolated from guinea pig brain cortex membrane using PCP as radioligand at a concentration of 10e-5 M.
Assay [2] can be described thus: Inhibition of [3H]DTG binding to sigma receptor from guinea pig brain cortex membrane.
Assay [3] in a line: Inhibitory activity against 5-hydroxytryptamine 1A receptor isolated from rat hippocampus membranes membrane using [3H]5-HT as radioligand in the presence of 10e-6 M ketanserin as 5-HT2 blocker.
For assay [4], the target named is Sigma non-opioid intracellular receptor 1 (Cavia porcellus) (UniProt Q60492). Nature of the assay: Inhibitory activity against sigma receptor isolated from guinea pig brain cortex membrane using [3H]DTG as radioligand.
Chain of Sigma non-opioid intracellular receptor 1 (Cavia porcellus) (Q60492 whole entry, looked up): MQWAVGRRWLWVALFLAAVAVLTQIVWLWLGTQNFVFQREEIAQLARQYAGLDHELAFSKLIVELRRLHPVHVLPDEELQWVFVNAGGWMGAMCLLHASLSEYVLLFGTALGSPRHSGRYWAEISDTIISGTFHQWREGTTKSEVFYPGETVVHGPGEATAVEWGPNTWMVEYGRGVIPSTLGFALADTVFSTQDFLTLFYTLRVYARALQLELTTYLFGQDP

The structures appear in SMILES notation.

A word on the Ki: it is the dissociation constant of the complex between target and ligand, obtained from inhibition or displacement. Take `COc1cccc2c1CCCC2CCCNCCNc1ccccc1` (stereo unspecified) [N-[3-(5-Methoxy-1,2,3,4-tetrahydro-naphthalen-1-yl)-propyl]-N'-phenyl-ethane-1,2-diamine]: the values for the Ki in assay [1] and in assay [2] were 2130 nM and 265 nM, respectively.

With `COc1cccc2c1CCC=C2CCCN1CCN(Cc2ccccc2)CC1` [1-Benzyl-4-[3-(5-methoxy-3,4-dihydro-naphthalen-1-yl)-propyl]-piperazine], the Ki in assay [3] is more than 1430 nM; in assay [4], 139 nM.

In turn, `COc1ccc2c(c1)C(CCCN1CCN(C3=NCCCC3)CC1)CCC2` (stereo unspecified) [1-[3-(7-Methoxy-1,2,3,4-tetrahydro-naphthalen-1-yl)-propyl]-4-(3,4,5,6-tetrahydro-pyridin-2-yl)-piperazine] registered a Ki in assay [2] of 29 nM.

Turning to `COc1cccc2c1CCCC2CCCN1CCNCC1` (stereo unspecified) [1-(3-(5-methoxy-1,2,3,4-tetrahydronaphthalen-1-yl)propyl)piperazine], the Ki in assay [2] is more than 877 nM.

The values above are taken from BindingDB's records for doi:10.1021/jm950409c (University of Bari Aldo Moro, 1996).
